According to PMC7870075, “Physicochemical properties and formulation development of a novel compound inhibiting Staphylococcus aureus biofilm formation” (PLoS ONE, 2021):
In brackets after ≈: the same amount, converted by molar mass. Several values for one entry are separate records, joined by “and”; a condition that tells them apart may be missing. Equal values may be shown once. Read-outs that look alike come from different tables or passages of the source.

What was measured:
[1] = Solubility in organic solvents; format: physicochemical; details: thermodynamic from solid
Protocol: The concentration of CCG-211790 in organic solvents was carried out on a LabTech BlueStar plus UV-Vis spectrophotometer (Hopkinton, MA, USA) using dimethylformamide (DMF) as a reference solvent. UV-Vis absorption spectra were recorded in a wavelength range from 200–500 nm with samples placed in a quartz cuvette. CCG-211790 concentrations in organic solvents were determined based on the absorption of CCG-211790 at characteristic wavelength of 314 nm. Calibration curves were established giving a correlation coefficient more than 0.999. The solubility of CCG-211790 in organic solvents were also determined. CCG-211790 bulk powder was added in excess to 0.1–1 mL of an organic solvent. After ultrasonication for 30 min and incubation for 24 h at room temperature on a shaking platform to reach the saturation status, sample aliquots (0.5 mL) were centrifuged at 10,400 ×g for 10 min, and 10 μL of supernatant was diluted 500–50,000-fold with dimethylformamide (DMF). The saturation solubility of CCG-211790 in various organic solvents was determined via ultraviolet-visible spectrophotometry (UV-Vis) with DMF as the reference solvent.

TZM-bL cells = assay: Mammalian cell cytotoxicity assay (CCK-8); format: cell-based, human; details: for Cell viability %: single samples
Protocol: (§1) Cell cytotoxicity assay was performed by following previous protocols with minor revision. TZM-bL cells which is a HeLa cell derivative (a generous gift from Dr. Xiao Heng, University of Missouri) (100 μL, 5,000 cells per well) were grown in Dulbecco’s modified Eagle’s medium (DMEM) (Life Technologies, Grand Island, NY, USA) with 10% fetal bovine serum for 24 h at 37°C in 5% CO2 in duplicates. Supernatant was replaced with 100 μL fresh medium with different concentrations of CCG-211790 to culture the cells for 24 h at 37°C in 5% CO2. DMSO was used as the vehicle control. Ten μL of Cell Counting Kit-8 (CCK-8) solution (APExBIO, Houston, TX, USA) was added to each well of the plate. After 2 h, the plate was read at 450 nm by using a BioTek spectrophotometer (BioTek, Winooski, VT, USA). One hundred percent viability was set at the absorbance of the cells treated with only the vehicle (DMSO). The assay was performed twice in duplicates to obtain the mean and standard deviation of cell viability. The cell viability (survival rate) was calculated with the equation: Survival rate (%) = [(As—Ab) / (Ac—Ab)] x 100, As = Absorbance of tested compound (Absorbance of well containing cells, culture medium, CCK-8 and compound), Ab = Absorbance of blank (Absorbance of well containing culture medium and CCK-8), Ac = Absorbance of control (Absorbance of well containing cell, DMSO and CCK-8).

[2] = Mammalian cell cytotoxicity assay (CCK-8); format: cell-based, human; details: human, TZM-bL cells, 24 h
Protocol: as §1

S. aureus NRS384 strain = assay: Biofilm assay (96-well microtiter plate, crystal violet staining); format: cell-based, Staphylococcus aureus; details: for Inhibition of biofilm formation (vs treated with DMSO %): NRS384, single replicates
Protocol: Methicillin-resistant Staphylococcus aureus (MRSA) USA300 strain NRS384 (Strain USA300-0114, NR-46070), was provided by the Network on Antimicrobial Resistance in Staphylococcus aureus (NARSA) for distribution by BEI Resources, NIAID, NIH. The NRS384 strain was grown in Todd-Hewitt broth containing 0.2% yeast extract (THY) (Difco, Detroit, MI, USA). The medium for growth of static biofilms was THY with 0.5% glucose. All bacterial cultures were incubated at 37°C.
The biofilm assay was performed using 96-well polystyrene flat-bottom microtiter plate as described previously. Overnight cultures of S. aureus were diluted 1:200 with fresh THY medium containing 0.5% glucose. […] Non-adherent bacteria were washed away by PBS three times. Biofilms attached to microtiter plates were stained by crystal violet solution (Sigma-Aldrich, St. Louis, MO, USA) for 15 min. Excess stain was removed by washing with PBS. The crystal violet attached to biofilm samples was dissolved with ethanol. The absorbance at 595 nm was measured using Spectrostar Nano spectrophotometer (BMG Labtech, Ortenberg, Germany) as the value of biofilm formation. Percentage inhibition of sample treated with CCG-211790 was calculated against the mean of samples treated with DMSO. […] IC50 (the half maximal inhibitory concentration) was estimated.
Statistical analysis of the results was performed using a two-sided Student’s t-test. Dose Response fitting function in Origin was used to calculate the IC50. The IC50 was calculated by plotting the inhibition percentage (y) versus logarithm of dose (x), and fitting the data using the equation y=A1+A2−A1/1+10^(Logx0−x)p . IC50 was calculated as 10^logx0 . A1 stands for bottom asymptote, A2 stands for top asymptote and p is the hill slope (Origin 7.0, OriginLab Corporation, Northampton, MA, USA).

[3] = TZM-bL cells (HeLa cell derivative), single samples, read-out: Cell viability %
[4] = TZM-bL cells (HeLa cell derivative), read-out: Mean of cell viability

COc1ccc2c(c1)-c1nc(SCC(F)(F)F)n(C)c(=O)c1C(C)(C)C2 [CCG-211790, 9-Methoxy-3,5,5-trimethyl-2-((2,2,2-trifluoroethyl)thio)-5,6-dihydrobenzo[h]quinazolin-4(3H)-one]
solubility at 24 h ([1]; oil or lipid, Canola oil, room temperature, read-out: Solubility): 24.7 mg/mL (≈ 64.3 mM)
solubility at 24 h ([1]; oil or lipid, Coconut oil, room temperature, read-out: Solubility): 37.2 mg/mL (≈ 96.8 mM)
solubility at 24 h ([1]; oil or lipid, Oleic acid, room temperature, read-out: Solubility): 24.1 mg/mL (≈ 62.7 mM)
solubility at 24 h ([1]; oil or lipid, Olive oil, room temperature, read-out: Solubility): 24.3 mg/mL (≈ 63.2 mM)
solubility at 24 h ([1]; oil or lipid, Peanut oil, room temperature, read-out: Solubility): 22.3 mg/mL (≈ 58 mM)
solubility at 24 h ([1]; oil or lipid, Safflower oil, room temperature, read-out: Solubility): 22.7 mg/mL (≈ 59 mM)
solubility at 24 h ([1]; oil or lipid, Sesame oil, room temperature, read-out: Solubility): 22.7 mg/mL (≈ 59 mM)
solubility at 24 h ([1]; oil or lipid, Sunflower oil, room temperature, read-out: Solubility): 20 mg/mL (≈ 52 mM)
solubility at 24 h ([1]; oil or lipid, range over the edible oils of Table 2, read-out: solubility in edible oils): 20 to 37.2 mg/mL (≈ 52 to 96.8 mM)
solubility at 24 h ([1]; organic solvent or mixture, Acetonitrile, room temperature, read-out: Solubility): 57.6 mg/mL (≈ 150 mM)
solubility at 24 h ([1]; organic solvent or mixture, Dimethyl sulfoxide, room temperature, read-out: Solubility): 66.7 mg/mL (≈ 174 mM)
solubility at 24 h ([1]; organic solvent or mixture, Dimethylacetamide, room temperature, read-out: Solubility): 278 mg/mL (≈ 724 mM)
solubility at 24 h ([1]; organic solvent or mixture, Dimethylformamide, room temperature, read-out: Solubility): 215 mg/mL (≈ 560 mM)
solubility at 24 h ([1]; organic solvent or mixture, Ethanol, room temperature, read-out: Solubility): 18.2 mg/mL (≈ 47.3 mM)
solubility at 24 h ([1]; organic solvent or mixture, Glycerin, room temperature, read-out: Solubility): 1.3 mg/mL (≈ 3.38 mM)
solubility at 24 h ([1]; organic solvent or mixture, Isopropyl alcohol, room temperature, read-out: Solubility): 15.4 mg/mL (≈ 40.1 mM)
cytotoxic concentration (50 μM) as fold of the anti-biofilm IC50 (TZM-bL cells; 50 μM on TZM-bL cells vs biofilm IC50): about 39 fold
Cell viability % (TZM-bL cells; TZM-bL cells, 6.25 µM, 24 h): 86.99% and 84.77% and 85.92%
Cell viability % (TZM-bL cells; TZM-bL cells, 12.5 µM, 24 h): 82.11% and 70.18% and 71.70%
Cell viability % (TZM-bL cells; TZM-bL cells, 25 µM, 24 h): 69.05% and 56.68% and 66.50%
cell survival rate (mean of cell viability) (TZM-bL cells; TZM-bL cells, 50 μM, 24 h, normalized to DMSO): 56.05%
Cell viability % (TZM-bL cells; TZM-bL cells, 50 µM, 24 h): 57.46% and 48.66% and 56.82%
viability at 24 h, 6.25 µM [2, 3]: 79.6%
viability at 24 h, 6.25 µM [2, 4]: 84.3%
viability at 24 h, 12.5 µM [2, 3]: 80.8%
viability at 24 h, 12.5 µM [2, 4]: 76.2%
viability at 24 h, 25 µM [2, 3]: 69%
viability at 24 h, 25 µM [2, 4]: 65.3%
viability at 24 h, 50 µM ([2]; TZM-bL cells (HeLa cell derivative), 50 µM, single samples, read-out: Cell viability %): 61.3%
viability at 24 h, 50 µM ([2]; TZM-bL cells (HeLa derivative), 50 μM, normalized to DMSO, read-out: cell survival rate (mean of cell viability)): 56.1 ± 5.3%
Inhibition of biofilm formation (vs treated with DMSO %) (S. aureus NRS384 strain; 0.39 µM): 3.94% and -13.46% and 12.53% and 16.63% and 8.53% and 4.38% and 18.40% and 26.22% and 15.26%
Inhibition of biofilm formation (vs treated with DMSO %) (S. aureus NRS384 strain; 0.78 µM): 8.82% and 2.09% and 10.90% and 24.07% and 16.41% and 12.91% and 26.42% and 26.03% and 21.14%
Inhibition of biofilm formation (vs treated with DMSO %) (S. aureus NRS384 strain; 1.56 µM): 29.00% and 47.10% and 40.37% and 45.73% and 49.67% and 47.05% and 51.47% and 53.42% and 52.45%
Inhibition of biofilm formation (vs treated with DMSO %) (S. aureus NRS384 strain; 3.13 µM): 41.76% and 55.22% and 48.72% and 60.18% and 56.46% and 59.74% and 54.01% and 55.58% and 57.14%
Inhibition of biofilm formation (vs treated with DMSO %) (S. aureus NRS384 strain; 6.25 µM): 62.41% and 64.27% and 61.48% and 70.02% and 63.24% and 70.24% and 69.08% and 70.25% and 66.93%
Inhibition of biofilm formation (vs treated with DMSO %) (S. aureus NRS384 strain; 12.50 µM): 65.20% and 63.57% and 64.97% and 75.93% and 70.24% and 70.02% and 75.73% and 75.34% and 73.19%
Inhibition of biofilm formation (vs treated with DMSO %) (S. aureus NRS384 strain; 25.00 µM): 70.30% and 69.84% and 74.25% and 79.43% and 78.99% and 75.05% and 76.52% and 81.02% and 80.63%
Inhibition of biofilm formation (vs treated with DMSO %) (S. aureus NRS384 strain; 50.00 µM): 79.58% and 79.12% and 79.35% and 82.49% and 82.28% (2×) and 80.23% and 79.06% and 83.76%
IC50 (S. aureus NRS384 strain; Staphylococcus aureus, MRSA / NRS 384 / USA300, S. aureus NRS384 (MRSA USA300), overnight 37°C, crystal violet, read-out: IC50 of the inhibition of biofilm formation): 1280 ± 450 nM
